Assay results reported in patent publication US8034810B2, “Arylsulfonamido-substituted hydroxamic acid derivatives” (Novartis AG, priority 1999, dated 2011).
pIC50: −log10 of the molar value.

Each molecule was assayed against T1, MT1-MMP (Homo sapiens, UniProt P50281) (assay: In vitro inhibition of MT1-MMP, fluorogenic peptide substrate). Details: catalytic domain of human MT1-MMP; substrate 10 μM; 37° C.
T1 construct: made in house
Format: biochemical
Experimental: The inhibitory activities of compounds of formula I on MT1-MMP, MMP1 (collagenase 1) and MMP2 (gelatinase A) can be determined as follows:
Stock solutions of substrate (MCA-Pro-Leu-Gly-Leu-Dpa-Ala-Arg-NH2, Knight, C. G., Willenbrock, F., Murphy, G., A novel coumarin-labelled peptide for sensitive continuous assays of the matrix metalloproteinases, FEBS lett., 296, 263-266, (1992)), are prepared in 100% DMSO at a concentration 1.0 mM. Stock solutions of inhibitors are prepared in 100% DMSO. The inhibitor is diluted into the assays from a solution in 100% DMSO, and controls substitute an equal volume of DMSO so that the final DMSO concentration from inhibitor and substrate dilutions in all assays is 6.0%. Assays are performed in assay buffer (150 mM NaCl, 10 mM CaCl2, 50 mM Tris-Cl pH7.5, 0.05% Brij-35) containing 6.0% DMSO once the substrate and inhibitor are diluted into it. The substrate concentration used in the assays is 10 μM. The test is carried out at 37° C. The fluorescence changes are monitored using an excitation wavelength of 320 nm and an emission wavelength of […]. The reaction mixture is added in duplicate to appropriate wells of a 96 well microfluor plate. The reaction mixture is preincubated with the inhibitor for 30 min, the reaction is started by the addition of MMP enzyme and the fluorescence intensity is measured for 10 min. A time point that is on a linear part of the curve is chosen to determine the activity. The inhibition results are expressed as the inhibitor concentrations that produced 50% inhibition (IC50) of the activity in the control (non-inhibited) reaction. In this test, the compounds of the formula I and their pharmacologically acceptable salts have an inhibiting concentration IC50 [μmol/litre] of 0.0001 and 0.030, usually of 0.0002 to 0.010, for MMP2 and an inhibiting concentration IC50 [μmol/litre] of 0.0005 and 0.125, usually of 0.001 to 0.05, for MT1-MMP.
Plasmid: The catalytic domain of the cDNA fragment encoding a full length of human MT1-MMP gene [from Prof. Motoharu Seiki, Institute of Medical Science, The University of Tokyo; Sato, H., Takino, T., Okada, Y., Cao, J., Shinagawa, A., Yamamoto, E. and Seiki, M. Nature (London), 370:61-65, 1994)] is amplified by polymerase chain reaction (PCR). […] The resulting PCR product of a 519-bp fragment is subcloned between the NdeI and BamHI unique sites of pET11a (Stratagene). The sequence of catalytic domain of MT1-MMP (CD-MT1-MMP) is verified by the ABI PRIS™ dye terminator cycle sequencing kit with the ABI PRISM™ 377 DNA sequencer (Perkin Elmer).
Expression and Purification: The subcloned CD-MT1-MMP is used to transfect E. coli strain BL21-[DE3] (Hanahan, D. J. Mol. Biol. 1983; 166(4):557-80) and expressed as insoluble inclusion body materials. Transfectants are grown at 37° C. in 50 ml Luria-Bertani (LB) medium in the presence of 50 µg/ml ampicillin to a cell density of OD600=0.6-1.0, and CD-MT1-MMP production is induced with 1 mM isopropyl-1-D-galactopyranoside (IPTG). After treatments with 5 mg/ml lysozyme and 10 μg/ml DNase I, the inclusion bodies are prepared from the harvested cells by using the detergent buffer containing 0.2 M NaCl, 1% w/v deoxycholic acid, and 1% v/v Nonidet P40. The solubilization is achieved by resuspending the inclusion bodies in the solubilization buffer composed of 6 M urea, 100 mM 2-mercaptoethanol, and 20 mM Tris-Cl, pH8.5. The enzyme is purified and renaturated using 10 ml of a Q-Sepharose (Amersham Pharmacia Biotech) column equilibrated with 5 mM CaCl2, 0.02% v/v NaN3, in 20 mM Tris-Cl pH7.5. After washing with three volumes of the same buffer, the bound proteins are eluted with two volumes of a linear gradient of 0.5-1.0 M NaCl. The collected fractions (1 ml each) are dialyzed for 6 h in equilibrated buffer. Superdex G200 column (1×15 cm) (Amersham Pharmacia) is equilibrated in 20 mM Tris-Cl, pH 7.5, 5 mM CaCl2, 0.02% NaN3. The desalted sample is applied to Superdex G200 column and chromatographed at 0.5 ml/min. […]

pIC50 | Compound
8.26 | C=CCCOc1ccc(S(=O)(=O)N(Cc2cccc(OC)c2)[C@@H](C(=O)NO)C(C)C)cc1 [Example 13, (R)-2-[(4-but-3-enyloxy-benzenesulfonyl)-(3-methoxy-benzyl)-amino]-N-hydroxy-3-methyl-butyramide]
8.43 | COc1cccc(CN([C@H](C)C(=O)NO)S(=O)(=O)c2ccc(OCCCCl)cc2)c1 [Example 15, (R)-2-{[4-(3-chloro-propoxy)-benzenesulfonyl]-(3-methoxy-benzyl)-amino}-N-hydroxy-propionamide]
7.90 | O=C(NO)[C@@H](Cc1ccccc1)N(Cc1ccc(Cl)cc1)S(=O)(=O)c1ccc(OCCCF)cc1 [Example 30, (R)-2-{(4-chloro-benzyl)-[4-(3-fluoro-propoxy)-benzenesulfonyl]-amino}-N-hydroxy-3-phenyl-propionamide]

Compound | pIC50
COc1ccc(CN([C@H](CC(C)C)C(=O)NO)S(=O)(=O)c2ccc(OCCCCF)cc2)cc1 [Example 53, (R)-2-{[4-(4-fluoro-butoxy)-benzenesulfonyl]-(4-methoxy-benzyl)-amino}-N-hydroxy-4-methyl-valeramide] | 8.04
